From patent publication US20110039762A1, “TARGETED ANTIMICROBIAL MOIETIES” (C3 JIAN, INC., priority 2009, published 2011)
Entries after “also recorded” stand apart in the source; their conditions may differ.

tested on: microorganisms (e.g., bacteria, yeasts, fungi); experiment: Targeting peptide binding to target microorganisms (Table 3); conditions: microorganism the targeting peptide binds; binding in aqueous buffers varied by peptide solubility, preferably 1x PBS

Row | Substance | Target(s)
1 | 1T-40 (QRVSLWSEVEHEFR; Peptide with targeting and/or antimicrobial activity) [Peptide 1T-40] | S. mutans; also recorded: P. aeruginosa
2 | 1T-38 (VMFVLTRGRSPRPMIPAY; Peptide with targeting and/or antimicrobial activity) [Peptide 1T-38] | S. mutans; also recorded: S. aereus; also recorded: S. epidermidis; also recorded: C. jeikeium; also recorded: C. xerosis; also recorded: C. striatum; also recorded: P. aeruginosa
3 | 1T-126 (QGLARPVLRRIPL; Peptide with targeting and/or antimicrobial activity) [Peptide 1T-126] | S. gordonii; also recorded: S. mitis; also recorded: S. mutans
4 | 1T-75 (GVARGLQLGIKTRTQWGAATGAA; Peptide with targeting and/or antimicrobial activity) [Peptide 1T-75] | S. pneumoniae
5 | 1T-58 (CDDLHALERAGKLDALLSA; Peptide with targeting and/or antimicrobial activity) [Peptide 1T-58] | P. aeruginosa
6 | TT-309 (EPLPLTKYDKKDTEMKKVFKEILAGKVGYEKEEE; Peptide with targeting and/or antimicrobial activity) | F. nucleatum

same assay, conditions: microorganism(s) the targeting peptide binds; binding in aqueous buffers depending on peptide solubility, preferably 1x PBS

Row | Substance | Target(s)
7 | PF-182 (LPATRDKTRVPASVAGAP; Peptide with targeting and/or antimicrobial activity) | S. epidermidis; also recorded: M. luteus; also recorded: E. coli; also recorded: E. faecalis; also recorded: C. jeikeium
8 | PF-221 (VFDNIDINF; Peptide with targeting and/or antimicrobial activity) | S. epidermidis; also recorded: M. luteus; also recorded: P. aeruginosa
9 | PF-328 (NGNEKAFSEVENLVK; Peptide with targeting and/or antimicrobial activity) | S. mutans
10 | PF-154 (GIKKSKHPSTDDYVVKTTIDSL; Peptide with targeting and/or antimicrobial activity) | S. mutans
11 | PF-206 (KLRSASKKSLQEKSCGIMPEKPAG; Peptide with targeting and/or antimicrobial activity) | M. luteus; also recorded: C. albicans; also recorded: C. jeikeium; also recorded: C. jejuni
12 | PF-340 (VKDVLLELFNKIIGA; Peptide with targeting and/or antimicrobial activity) | S. mutans; also recorded: E. coli

same assay, conditions: peptide binding in aqueous buffers varied by peptide solubility; preferably 1x PBS

Row | Substance | Target(s) (microorganisms bound by the targeting peptide)
13 | PF-767 (DGKQGEPVALKPTDN; Peptide with targeting and/or antimicrobial activity) | S. epidermidis and M. luteus and E. coli and MRSA and S. pneumoniae and E. faecalis and C. jeikeium
14 | PF-S026 (TELKYNGEEYLLLTQRDILAVIEK; Peptide with targeting and/or antimicrobial activity) | S. epidermidis and MRSA and C. jeikeium
15 | PEIIKIVSGLL [PF-758] | S. epidermidis and M. luteus and E. coli and MRSA and S. pneumoniae and E. faecalis and C. jeikeium
16 | PF-705 (GEEEGTVAD; Peptide with targeting and/or antimicrobial activity) | S. mutans; also recorded: E. coli
17 | PF-785 (MRPQHSPAGKAFVVKKITHEQS; Peptide with targeting and/or antimicrobial activity) | Mycobacteria spp.
18 | PF-716 (HGENHHHKSDEKDNDSSEKKD; Peptide with targeting and/or antimicrobial activity) | S. mutans
19 | PF-C259 (AEIQPHCLSVL; Peptide with targeting and/or antimicrobial activity) | F. nucleatum; also recorded: S. mutans
